Measurements reported in patent US5879942A, “Processing enzyme for polypeptide” (Kabushiki Kaisha Hayashibara Seibutsu Kagaku Kenkyujo, priority 1996, dated 1999).

Molecular target: T1, the present enzyme (Homo sapiens, UniProt P29466)
T1 construct: Using the anti-human ICE-p20 antibody and the antihuman ICE-p10 antibody; endogenous in cells
T1 sequence (P29466 120-297 limits assumed): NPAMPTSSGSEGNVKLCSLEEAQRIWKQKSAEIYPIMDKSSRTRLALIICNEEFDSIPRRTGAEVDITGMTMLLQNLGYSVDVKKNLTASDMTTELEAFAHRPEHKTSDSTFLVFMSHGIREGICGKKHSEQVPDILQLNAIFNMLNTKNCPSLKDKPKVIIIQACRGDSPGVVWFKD
T1 sequence (P29466 317-404 limits assumed): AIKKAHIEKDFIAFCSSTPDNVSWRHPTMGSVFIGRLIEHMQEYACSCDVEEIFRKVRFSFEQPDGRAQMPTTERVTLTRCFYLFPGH
Test: Activity of inhibitory agent on enzyme: conversion of precursor, Western Blotting
Format: biochemical
Details: for band corresponding to the active form on Western Blotting: enzyme of Example 1 (THP-1 cells), 37° C. for 3 hours; for Inhibitory agent: enzyme obtainable from a human hematopoietic cell, general property; for enzyme activity inhibited: enzyme of Example 7 (HL-60 cells), methods in Examples 2-5
Procedure: A substrate solution was prepared by dissolving the precursor of the polypeptide in Example 4-1 in 100 mM Hepes buffer (pH 7.4), containing 10 v/v % glycerol, 0.1 w/v % CHAPS and 2 mM dithiothreitol, to give a concentration of 500 nM, and mixed with 350 units/ml of the enzyme solution in Example 1, followed by the incubation at 37° C. At 0 min, 10 min, 30 min, one hour, 3 hours, 6 hours and 18 hours after initiating the incubation, a portion of the reaction mixture was sampled at each sampling time and admixed with iodoacetamide to give a final concentration of 200 μg/ml to suspend the reaction. The Western Blotting method using the monoclonal antibody, as disclosed in Japanese Patent Application No.231,598/96 applied by the same applicant of the present invention, was applied to the reaction mixture to study the change on passage of time during the conversion of the precursor into the active form.
In the conversion method for precursor in Example 4-2, the present enzyme in Example 1 was admixed with 5 μM Ac-YVAD-CHO or 650 μM iodoacetamide and reacted at 37° C. for 3 hours.

CC(=O)N[C@@H](Cc1ccc(O)cc1)C(=O)N[C@H](C(=O)N[C@@H](C)C(=O)N[C@H](C=O)CC(=O)O)C(C)C [Ac-YVAD-CHO, acetyl-L-tyrosyl-L-varyl-L-alanyl-L-aspart-1-al]
band corresponding to the active form on Western Blotting (5 μM Ac-YVAD-CHO): no band corresponding to the active form was detected | Inhibitory agent: inhibited | enzyme activity inhibited: inhibited

NC(=O)CI [iodoacetamide]
band corresponding to the active form on Western Blotting (650 μM iodoacetamide): no band corresponding to the active form was detected | Inhibitory agent: inhibited | enzyme activity inhibited: inhibited
